Assays:
[1] = target: human recombinant sGC enzyme (Homo sapiens (Human), UniProt Q02108+Q02153); experiment: Size Exclusion Chromatography (SEC) competition binding assay using [3H] Ex-77B as the radioligand; settings: [3H] Ex-77B radioligand, 24 hours at 37° C.
Summary of the method: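 Recombinant human sGC binding measured by competition against tritiated Ex-77B radioligand, with non-specific binding defined by 1 μM unlabeled Ex-77B.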

sGC α1/β1 heterodimer = sGC α1/β1 heterodimer (Homo sapiens (Human), UniProt Q02108+Q02153); experiment: Cell-based sGC functional assay (cyclic GMP assay for sGC activator: CASA assay); settings: CHO-K1/sGC cells; for Emax: CHO-K1, activity expressed as percentage of compound A (standard), read-out: % Activation; for EC50: inflection point, 4P fit, read-out: IP
Summary of the method: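 CHO-K1 cells stably expressing sGC α1/β1 were pre-incubated with or without 1 μM DETA-NO (30 min, 25 °C), then exposed to compounds for 1 hr at 37 °C with 0.5 mM IBMX. Intracellular cGMP was read by HTRF and expressed as a percentage of a reference heme-dependent activator's maximum.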

CC(C)(Cc1coc(C2(C)C(=O)Nc3nc(-c4nn(Cc5cccc(F)c5F)c5cc(F)ccc45)nc(N)c32)n1)C(=O)O (stereo not drawn) [Example 200A, 3-(2-{4-amino-2-[1-(2,3-difluoro-benzyl)-6-fluoro-1H-indazol-3-yl]-5-methyl-6-oxo-6,7-dihydro-5H-pyrrolo[2,3-d]pyrimidin-5-yl}-1,3-oxazol-4-yl)-2,2-dimethyl-propanoic acid]
Ki [1]: 0.052 nM | Emax (sGC α1/β1 heterodimer): 120% | EC50 (sGC α1/β1 heterodimer): 220 nM

CC(C)(Cc1csc([C@]2(C)C(=O)Nc3nc(-c4nn(CC5CCCCC5)c5cc(F)ccc45)nc(N)c32)n1)C(=O)O [Example 201A, (S)-3-(2-{4-amino-2-[1-(cyclohexyl-methyl)-6-fluoro-1H-indazol-3-yl]-5-methyl-6-oxo-6,7-dihydro-5H-pyrrolo[2,3-d]pyrimidin-5-yl}-1,3-thiazol-4-yl)-2,2-dimethyl-propanoic acid]
Ki [1]: 0.151 nM | Emax (sGC α1/β1 heterodimer): 91.2% | EC50 (sGC α1/β1 heterodimer): 39 nM

CC1(c2nc(CC(=O)O)co2)C(=O)Nc2nc(-c3nn(Cc4ccccc4F)c4ccccc34)nc(N)c21 (stereo not drawn) [Example 203A, (2-{4-amino-2-[1-(2-fluorobenzyl)-1H-indazol-3-yl]-5-methyl-6-oxo-6,7-dihydro-5H-pyrrolo[2,3-d]pyrimidin-5-yl}-1,3-oxazol-4-yl)acetic acid]
Ki [1]: 0.071 nM | Emax (sGC α1/β1 heterodimer): 122% | EC50 (sGC α1/β1 heterodimer): 330 nM

CC(C)(CCc1csc(C2(C)C(=O)Nc3nc(-c4nn(Cc5ccccc5F)c5ccccc45)nc(N)c32)n1)C(=O)O (stereo not drawn) [Example 204A, 4-(2-{4-amino-2-[1-(2-fluorobenzyl)-1H-indazol-3-yl]-5-methyl-6-oxo-6,7-dihydro-5H-pyrrolo[2,3-d]pyrimidin-5-yl}-1,3-thiazol-4-yl)-2,2-dimethyl-butanoic acid]
Ki [1]: 0.269 nM | Emax (sGC α1/β1 heterodimer): 97.8% | EC50 (sGC α1/β1 heterodimer): 47 nM

CC(C)(CCc1coc(C2(C)C(=O)Nc3nc(-c4nn(Cc5ccccc5F)c5ncccc45)nc(N)c32)n1)C(=O)O (stereo not drawn) [Example 206B, 4-(2-{4-amino-2-[1-(2-fluorobenzyl)-1H-pyrazolo[3,4-b]pyridin-3-yl]-5-methyl-6-oxo-6,7-dihydro-5H-pyrrolo[2,3-d]pyrimidin-5-yl}-1,3-oxazol-4-yl)-2,2-dimethyl-butanoic acid]
Ki [1]: 0.798 nM | Emax (sGC α1/β1 heterodimer): 113% | EC50 (sGC α1/β1 heterodimer): 549 nM

CC(C)(CCc1coc(C2(C)C(=O)Nc3nc(-c4nn(Cc5ncccc5F)c5cc(Cl)ccc45)nc(N)c32)n1)C(=O)O (stereo not drawn) [Example 207B, 4-{2-[4-amino-2-{6-chloro-1-[(3-fluoropyridin-2-yl)methyl]-1H-indazol-3-yl}-5-methyl-6-oxo-6,7-dihydro-5H-pyrrolo[2,3-d]pyrimidin-5-yl]-1,3-oxazol-4-yl}-2,2-dimethyl-butanoic acid]
Ki [1]: 0.095 nM | Emax (sGC α1/β1 heterodimer): 100% | EC50 (sGC α1/β1 heterodimer): 1760 nM

CC(C)(C)CCn1nc(-c2nc(N)c3c(n2)NC(=O)C3(C)c2nc(CC(C)(C)C(=O)O)co2)c2ccc(Cl)cc21 (stereo not drawn) [Example 208A, 3-(2-{4-amino-2-[6-chloro-1-(3,3-dimethylbutyl)-1H-indazol-3-yl]-5-methyl-6-oxo-6,7-dihydro-5H-pyrrolo[2,3-d]pyrimidin-5-yl}-1,3-oxazol-4-yl)-2,2-dimethyl-propanoic acid]
Ki [1]: 0.253 nM | Emax (sGC α1/β1 heterodimer): 101% | EC50 (sGC α1/β1 heterodimer): 453 nM

CC1(c2ccc(C(=O)O)cc2)C(=O)Nc2nc(-c3nn(Cc4ccccc4F)c4cc(Cl)ccc34)nc(N)c21 (stereo not drawn) [Example 209B, 4-{4-amino-2-[6-chloro-1-(2-fluorobenzyl)-1H-indazol-3-yl]-5-methyl-6-oxo-6,7-dihydro-5H-pyrrolo[2,3-d]pyrimidin-5-yl} benzoic acid]
Ki [1]: 1.64 nM | Emax (sGC α1/β1 heterodimer): 94.4% | EC50 (sGC α1/β1 heterodimer): 2480 nM

CC(C)(C)CCn1nc(-c2nc(N)c3c(n2)NC(=O)[C@@]3(C)c2ccc(CCC(=O)O)cc2)c2cccnc21 [Example 210B, (S)-3-(4-{4-amino-2-[1-(3,3-dimethylbutyl)-1H-pyrazolo[3,4-b]pyridin-3-yl]-5-methyl-6-oxo-6,7-dihydro-5H-pyrrolo[2,3-d]pyrimidin-5-yl}phenyl)propanoic acid]
Ki [1]: 0.341 nM | Emax (sGC α1/β1 heterodimer): 103% | EC50 (sGC α1/β1 heterodimer): 2020 nM

Cc1cccc(Cn2nc(-c3nc(N)c4c(n3)NC(=O)C4(C)c3cnn(CC(C)(C)C(=O)O)c3)c3ccc(F)cc32)c1F (stereo not drawn) [Example 211A, 3-(4-{4-amino-2-[6-fluoro-1-(2-fluoro-3-methyl-benzyl)-1H-indazol-3-yl]-5-methyl-6-oxo-6,7-dihydro-5H-pyrrolo[2,3-d]pyrimidin-5-yl}-1H-pyrazol-1-yl)-2,2-dimethyl-propanoic acid]
Ki [1]: 0.258 nM | Emax (sGC α1/β1 heterodimer): 96.2% | EC50 (sGC α1/β1 heterodimer): 1180 nM

Cc1ccc(F)c(Cn2nc(-c3nc(N)c4c(n3)NC(=O)C4(C)c3nc(CC(C)(C)C(=O)O)co3)c3ccc(Cl)cc32)c1 (stereo not drawn) [Example 213A, 3-(2-{4-amino-2-[6-chloro-1-(2-fluoro-5-methyl-benzyl)-1H-indazol-3-yl]-5-methyl-6-oxo-6,7-dihydro-5H-pyrrolo[2,3-d]pyrimidin-5-yl} 1,3-oxazol-4-yl)-2,2-dimethyl-propanoic acid]
Ki [1]: 0.123 nM | Emax (sGC α1/β1 heterodimer): 94.9% | EC50 (sGC α1/β1 heterodimer): 839 nM

Cc1ccnc(Cn2nc(-c3nc(N)c4c(n3)NC(=O)C4(C)c3nc(CC(C)(C)C(=O)O)co3)c3ccc(Cl)cc32)c1F (stereo not drawn) [Example 215A, 3-(2-{4-amino-2-[6-chloro-1-((3-fluoro-4-methyl-pyridin-2-yl)methyl)-1H-indazol-3-yl]-5-methyl-6-oxo-6,7-dihydro-5H-pyrrolo[2,3-d]pyrimidin-5-yl} 1,3-oxazol-4-yl)-2,2-dimethyl-propanoic acid]
Ki [1]: 0.189 nM | Emax (sGC α1/β1 heterodimer): 119% | EC50 (sGC α1/β1 heterodimer): 3700 nM

Cc1ccnc(Cn2nc(-c3nc(N)c4c(n3)NC(=O)[C@@]4(C)c3nc(CC(C)(C)C(=O)O)cs3)c3ccc(Cl)cc32)c1F [Example 216A, (S)-3-(2-{4-amino-2-[6-chloro-1-((3-fluoro-4-methyl-pyridin-2-yl)methyl)-1H-indazol-3-yl]-5-methyl-6-oxo-6,7-dihydro-5H-pyrrolo[2,3-d]pyrimidin-5-yl} 1,3-thiazol-4-yl)-2,2-dimethyl-propanoic acid]
Ki [1]: 0.11 nM | Emax (sGC α1/β1 heterodimer): 132% | EC50 (sGC α1/β1 heterodimer): 678 nM

CC1(c2ccc(/C=C/C(=O)O)cc2)C(=O)Nc2nc(-c3nn(Cc4ccccc4F)c4ncccc34)nc(N)c21 (stereo not drawn) [Example 217A, (2E)-3-(4-{4-amino-2-[1-(2-fluorobenzyl)-1H-pyrazolo[3,4-b]pyridin-3-yl]-5-methyl-6-oxo-6,7-dihydro-5H-pyrrolo[2,3-d]pyrimidin-5-yl}phenyl)prop-2-enoic acid]
Ki [1]: 0.067 nM | Emax (sGC α1/β1 heterodimer): 124% | EC50 (sGC α1/β1 heterodimer): 1420 nM

CC1(c2ccc(/C=C/C(=O)O)cc2)C(=O)Nc2nc(-c3nn(Cc4ccccc4F)c4cc(Cl)ccc34)nc(N)c21 (stereo not drawn) [Example 218A, (2E)-3-(4-{4-amino-2-[6-chloro-1-(2-fluorobenzyl)-1H-indazol-3-yl]-5-methyl-6-oxo-6,7-dihydro-5H-pyrrolo[2,3-d]pyrimidin-5-yl}phenyl)prop-2-enoic acid]
Ki [1]: 0.057 nM | Emax (sGC α1/β1 heterodimer): 103% | EC50 (sGC α1/β1 heterodimer): 301 nM

CC(C)(Cc1coc(C2(C)C(=O)Nc3nc(-c4nn(Cc5cccc(F)c5)c5ccccc45)nc(N)c32)n1)C(=O)O (stereo not drawn) [Example 223A, 3-(2-{4-amino-2-[1-(3-fluoro-benzyl)-1H-indazol-3-yl]-5-methyl-6-oxo-6,7-dihydro-5H-pyrrolo[2,3-d]pyrimidin-5-yl}-1,3-oxazol-4-yl)-2,2-dimethyl-propanoic acid]
Ki [1]: 0.05 nM | Emax (sGC α1/β1 heterodimer): 119% | EC50 (sGC α1/β1 heterodimer): 210 nM

— US10030027B2, “Soluble guanylate cyclase stimulators” (MERCK SHARP & DOHME CORP., priority 2015, dated 2018)
